From ChEMBL document CHEMBL1128011, “Discovery of nonpeptide potent conformationally restricted angiotensin II receptor antagonists” (Bioorg Med Chem Lett, 1994)

Tests used:
[1] = target: T1, Type-1 angiotensin II receptor B (Rattus norvegicus, UniProt P29089); assay: Displacement of [125-I]-labeled angiotensin II from Angiotensin II receptor, type 1 of rat uterine membranes; assay type: cell membranes, Membrane
T1 sequence (P29089 whole entry): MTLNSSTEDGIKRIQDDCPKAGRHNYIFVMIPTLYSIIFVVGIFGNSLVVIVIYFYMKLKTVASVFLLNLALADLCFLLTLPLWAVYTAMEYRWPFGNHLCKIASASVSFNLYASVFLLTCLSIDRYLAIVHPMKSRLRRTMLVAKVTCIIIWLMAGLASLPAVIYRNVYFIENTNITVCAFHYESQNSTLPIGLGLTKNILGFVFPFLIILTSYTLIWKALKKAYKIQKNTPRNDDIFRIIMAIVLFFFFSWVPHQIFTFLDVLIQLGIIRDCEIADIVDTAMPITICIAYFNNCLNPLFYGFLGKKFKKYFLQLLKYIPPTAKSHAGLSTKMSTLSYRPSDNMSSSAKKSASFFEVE

[2] = target: T1, Type-1 angiotensin II receptor B; assay: Inhibition of [125-I]-labeled angiotensin II binding to AT1 receptor in rat uterine membranes; assay type: cell membranes, Membrane
Oryctolagus cuniculus = species on record: Oryctolagus cuniculus; assay: Compound was tested in vitro for its ability to antagonize the AII-mediated contraction of rabbit aortic rings; assay type: functional, Aorta

Row | IC50 [1] | IC50 [2] | Compound | also measured
1 | > 10000 nM | – | CCCCn1nc(C(CCC)CC2=NC(C)(C)CO2)n(Cc2ccc(-c3ccccc3-c3nnn(C(c4ccccc4)(c4ccccc4)c4ccccc4)n3)cc2)c1=O (stereo not given) | –
2 | > 10000 nM | > 10000 nM | CCCCn1nc2n(c1=O)C(c1ccc(-c3ccccc3-c3nnn(C(c4ccccc4)(c4ccccc4)c4ccccc4)n3)cc1)CCC2CCC (stereo not given) | –
3 | > 10000 nM | – | CCCCn1nc(C(CCC)CCO)n(Cc2ccc(-c3ccccc3-c3nnn(C(c4ccccc4)(c4ccccc4)c4ccccc4)n3)cc2)c1=O (stereo not given) | –
4 | > 10000 nM | – | CCCCn1nc(C(Br)CCC)n(Cc2ccc(-c3ccccc3-c3nnn(C(c4ccccc4)(c4ccccc4)c4ccccc4)n3)cc2)c1=O (stereo not given) | –
5 | – | > 10000 nM | CCCCc1cn(Cc2ccc(-c3ccccc3-c3nnn(C(c4ccccc4)(c4ccccc4)c4ccccc4)n3)cc2)c(CCCC)n1 | –
6 | – | > 10000 nM | CCCCc1ncc2n1[C@H](c1ccc(-c3ccccc3-c3nnn(C(c4ccccc4)(c4ccccc4)c4ccccc4)n3)cc1)C[C@@H](Br)[C@@H]2N1C(=O)CCC1=O | –
7 | > 10000 nM | – | CCCCn1nc(C(CCC)CCBr)n(Cc2ccc(-c3ccccc3-c3nnn(C(c4ccccc4)(c4ccccc4)c4ccccc4)n3)cc2)c1=O (stereo not given) | –
8 | – | > 10000 nM | CCCCc1ncc2n1[C@H](c1ccc(-c3ccccc3-c3nnn(C(c4ccccc4)(c4ccccc4)c4ccccc4)n3)cc1)CC[C@@H]2N1C(=O)CCC1=O | –
9 | > 10000 nM | – | CCCCc1nn(CCCC)c(=O)n1Cc1ccc(-c2ccccc2-c2nnn(C(c3ccccc3)(c3ccccc3)c3ccccc3)n2)cc1 | –
10 | 5 nM | – | CCCCc1nn(CCCC)c(=O)n1Cc1ccc(-c2ccccc2-c2nnn[nH]2)cc1 | –

The next lines start with the compound.

Row | Compound | IC50 [1] | IC50 [2] | also measured
11 | CCCCN1N=C(CCC)/C(=C/c2ccc(-c3ccccc3-c3nn[nH]n3)cc2)C1=O | 45000 nM | – | –
12 | CCCCc1cn(Cc2ccc(-c3ccccc3-c3nnn[nH]3)cc2)c(CCCC)n1 | – | 63 nM | –
13 | CCCCc1ncc2n1C(c1ccc(-c3ccccc3-c3nnn[nH]3)cc1)CC=C2 (stereo not given) | > 10000 nM | 120 nM | –
14 | CCCCn1nc2n(c1=O)C(c1ccc(-c3ccccc3-c3nn[nH]n3)cc1)CCC2CCC (stereo in doubt; 12) | 1800 nM | – | –
15 | CCCCc1ncc2n1[C@H](c1ccc(-c3ccccc3-c3nn[nH]n3)cc1)CC[C@@H]2N1C(=O)CCC1=O | – | 15 nM | pA2 (Oryctolagus cuniculus): 8.6
16 | CCCCc1nc(Cl)c2n1[C@H](c1ccc(-c3ccccc3-c3nn[nH]n3)cc1)CC[C@@H]2N1C(=O)CCC1=O | – | 11 nM | Kb (Oryctolagus cuniculus; Oryctolagus cuniculus, Aorta, read-out: pA2 (converted)): 1.58 nM
17 | CCCCc1nc(CCCC)n2c1C=CCC2c1ccc(-c2ccccc2-c2nn[nH]n2)cc1 (stereo not given) | – | 190 nM | –
18 | CCCCn1nc2n(c1=O)C(c1ccc(-c3ccccc3-c3nn[nH]n3)cc1)CCC2 (stereo not given) | – | > 10000 nM | –
19 | CCCCN1N=C(CCC)C(Cc2ccc(-c3ccccc3-c3nn[nH]n3)cc2)C1=O (stereo not given) | 500 nM | – | –
20 | CCCC1CCC(c2ccc(-c3ccccc3-c3nnn[nH]3)cc2)n2c1n[nH]c2=O (stereo not given) | > 10000 nM | – | –
21 | CCCCn1nc2n(c1=O)C(c1ccc(-c3ccccc3-c3nn[nH]n3)cc1)CCC2CCC (stereo in doubt; 13) | 1600 nM | – | –
